The nature of this data set: Degradation temperature by thermal gravimetric analysis (TGA) or differential scanning calorimetry (DSC). It counts as physicochemical. The procedure:
The degradation temperature was determined by thermal gravimetric analysis (TGA) or differential scanning calorimetry (DSC).

Consider one substance from patent publication US9820481B2, “Encapsulation of active ingredients and method of making” (Arch Chemicals, Inc., priority 2013, dated 2017).

As for zinc pyrithione [A (comp)], the “Degradation Temp” value amounted to 265 °C.
